Broadly, the IC50 is the concentration that inhibits the measured activity by half.

Experimental findings from the supplement of paper PMC3493320 are described below.

Each structure is given as a SMILES string.

This assay relates to NCI-H295R. Kind of assay: IC50 (antiproliferative, ATP content). As to conditions: 48 h. An outline of the steps:
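Compounds were pin-transferred at 8 final concentrations between 0.6 nM and 46 µM onto adrenocortical carcinoma cells (1500 per well, 1536-well plates) that had been cultured overnight in serum-free DMEM with ITS. Plates then stood 48 h at 37 °C, 5% CO2, and ATP was detected by CellTiter-Glo luminescence. IC50 was derived from logistic fits of normalised signal, and compounds giving no concentration response were noted as above the top dose.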
`Cc1c(O)c(=O)ccn1C` registered a half-inhibitory concentration (IC50) of more than 46 µM.
`COc1ccc(/C=C/C(=O)O)cc1` returned a concentration for half-maximal inhibition (IC50) of more than 46 µM.
As for `O=C2N1[C@]([C@@]([H])2NC(CC3=CC=CC=C3)=O)([H])SC(C)(C)[C@@H]1[C@@](O)=O.O=C5N4[C@]([C@@]([H])5NC(CC6=CC=CC=C6)=O)([H])SC(C)(C)[C@@H]4[C@@](O)=O.C7(CNCCNCC8=CC=CC=C8)=CC=CC=C7`, the IC50 is more than 46 µM.
With `COc1cc(O)cc(O)c1`, the IC50 was more than 46 µM.
On to `O=c1oc2cc(O)ccc2s1`, for which the concentration for half-maximal inhibition (IC50) is more than 46 µM.
As to `C[C@]12CC[C@@H]3c4ccc(O)cc4CC[C@H]3[C@@H]1C[C@@H](O)[C@H]2O`, the 50% inhibitory concentration (IC50) was more than 46 µM.
Consider `CC[N+](C)(C)Cc1ccccc1Br.Cc1ccc(S(=O)(=O)[O-])cc1`, for which the IC50 is more than 46 µM.
`CC=Cc1ccc(OC)cc1` yielded an IC50 of more than 46 µM.
On to `F[C@@]([C@](C=C4)(C)C3=CC4=O)2[C@@H](O)C[C@]([C@](C5)([H])[C@@]([H])2CC3)(C)[C@@]1([C@](CO)=O)[C@@H]5OC(C)(C)O1`, for which the 50% inhibitory concentration (IC50) is more than 46 µM.
With `CN1CCCN=C1COC(=O)C(O)(c1ccccc1)C1CCCCC1.Cl` (stereo not given), the IC50 was more than 46 µM.
In turn, `O=C(O)C[CH2][Ge](=[O])[O][Ge](=[O])[CH2]CC(=O)O` registered an IC50 of more than 46 µM.
For `CCCn1cnc2c1c(=O)n(CCCCC(C)=O)c(=O)n2C`, the concentration for half-maximal inhibition (IC50) was more than 46 µM.
The compound `CO/N=C(/C(=O)N[C@@H]1C(=O)N2C(C(=O)[O-])=C(COC(C)=O)CS[C@H]12)c1csc(N)n1.[Na+]` came in with an IC50 of more than 46 µM.
Next, `O=C1C[C@@H]([C@](N[C@@H](CC3=CNC=N3)C(N2[C@]([H])(C(N)=O)CCC2)=O)=O)NC(N1C)=O`: more than 46 µM; `CC(CCc1ccc(O)cc1)NCCc1ccc(O)c(O)c1` (stereo not given): more than 46 µM.
As for `CCn1cc(C(=O)O)c(=O)c2cnc(N3CCNCC3)nc21`, the IC50 is more than 46 µM.
Turning to `CCCCCCCCCC(=O)O[C@H]1CC[C@H]2[C@@H]3CCC4=CC(=O)CC[C@]4(C)[C@H]3CC[C@]12C`, the IC50 was more than 46 µM.
The result for `CO/N=C(\C(=O)N[C@@H]1C(=O)N2C(C(=O)O)=C(CSc3nnnn3C)CS[C@H]12)c1csc(N)n1.CO/N=C(\C(=O)N[C@@H]1C(=O)N2C(C(=O)O)=C(CSc3nnnn3C)CS[C@H]12)c1csc(N)n1.Cl` reads more than 46 µM; that for `N/C(N)=N/C1=NC(CSCCC(N)=NS(N)(=O)=O)=CS1`, more than 46 µM.
`CC(C)COCC(CN(Cc1ccccc1)c1ccccc1)N1CCCC1` (stereo not given): the IC50 was more than 46 µM.
The compound `ClC1=CC=C(\C3=C2/CCNCC2)C(CCC4=C3N=CC=C4)=C1` showed an IC50 of more than 46 µM.
As for `CCCCC(CC)COC(=O)CC(C(=O)OCC(CC)CCCC)S(=O)(=O)[O-].[Na+]` (stereo not given), the IC50 was more than 46 µM.
In the case of `NC(=O)c1ncn([C@@H]2O[C@H](CO)[C@@H](O)[C@H]2O)c1N`, the IC50 is more than 46 µM.
`CO[C@H]1O[C@@H]2O[C@@]3(C)CC[C@H]4[C@H](C)CC[C@@H]([C@H]1C)[C@@]24OO3` showed a half-maximal inhibitory concentration (IC50) of more than 46 µM.
As to `CCC1NC(=O)c2cc(S(N)(=O)=O)c(Cl)cc2N1` (stereo not given), the IC50 was more than 46 µM.
`CC(=C(CCO)SSC(CCO)=C(C)N(C=O)Cc1cnc(C)nc1N)N(C=O)Cc1cnc(C)nc1N` gave an IC50 of more than 46 µM.
Turning to `O=C([O-])CN(CCN(CC(=O)[O-])CC(=O)[O-])CC(=O)[O-].[Ca+2].[Na+].[Na+]`, the IC50 was more than 46 µM.
The result for `CCNCC(O)c1cccc(O)c1.Cl` (stereo not given) reads more than 46 µM; that for `[NH2][Pt]1([NH2])[O]C(=O)C2(CCC2)C(=O)[O]1`, more than 46 µM.
As for `Cc1cc(C)c(NC(=O)C[C@H](CC(=O)[O][Na])c2cccc3ccccc23)c(C(=O)N2CCC3(CCCC3)CC2)c1`, the IC50 is more than 46 µM.
Next, `[C@@]2\1(\C(=C/C(/C=C/1)=O)CC[C@@H]4[C@@H]2CC[C@@]3([C@](O)(C)CC[C@H]34)C)C`: more than 46 µM; `Cc1cc(N)c2ccccc2[n+]1CCCCCCCCCC[n+]1c(C)cc(N)c2ccccc21.[Cl-].[Cl-]`: more than 46 µM; `NC(=O)c1ccc([N+](=O)[O-])cc1Cl`: more than 46 µM.
In the case of `N[C@@H]1CONC1=O`, the half-inhibitory concentration (IC50) is more than 46 µM.
`Cc1scc2c1N(C(=O)CN1CCN(C)CC1)c1ccccc1NC2=O` yielded an IC50 of more than 46 µM.
The compound `CCCCC(O)c1ccccc1` (stereo not given) showed a concentration for half-maximal inhibition (IC50) of more than 46 µM.
The compound `CO` displayed a half-maximal inhibitory concentration (IC50) of more than 46 µM.
`C[C@@H]1C[C@H]2[C@@H]3CCC4=CC(=O)C=C[C@]4(C)[C@@]3(F)[C@@H](O)C[C@]2(C)[C@@]1(O)C(=O)COC(=O)c1cccc(S(=O)(=O)[O-])c1.[Na+]` came in with a 50% inhibitory concentration (IC50) of more than 46 µM.
Compound `Nc1nc(=O)c2nc(CNc3ccc(C(=O)N[C@@H](CCC(=O)O)C(=O)O)cc3)cnc2[nH]1` registered a 50% inhibitory concentration (IC50) of more than 46 µM.
The result for `CN(C)CCN(Cc1ccccc1)c1ccccn1.O=C(O)CC(O)(CC(=O)O)C(=O)O` reads more than 46 µM.
Consider `CN1CCN(c2c(F)cc3c(=O)c(C(=O)O)cn4c3c2SCC4)CC1.Cl`, for which the half-inhibitory concentration (IC50) is more than 46 µM.
Next, `NC[C@H]1O[C@H](O[C@H]2[C@H](O)[C@@H](O[C@H]3O[C@H](CO)[C@@H](O)[C@H](N)[C@H]3O)[C@H](N)C[C@@H]2N)[C@H](O)[C@@H](O)[C@@H]1O.O=S(=O)(O)O`: more than 46 µM; `[O-][n+]1cc[n+]([O-])c2ccccc21`: more than 46 µM; `C[N+](C)(C)CCOC(N)=O.[Cl-]`: more than 46 µM.
In the case of `CN1C(=O)[C@@H](NC(=O)c2cc3ccccc3[nH]2)N=C(c2ccccc2)c2ccccc21`, the IC50 was more than 46 µM.
As for `N=C\2/N=C3/O[C@H]1[C@H](O)[C@@H](CO)O[C@H]1N3/C=C/2`, the 50% inhibitory concentration (IC50) is more than 46 µM.
`CC(C)NC(C)Cc1ccc(I)cc1.Cl` (stereo not given) returned an IC50 of more than 46 µM.
The compound `O=c1n(Cl)c(=O)n(Cl)c(=O)n1Cl` came in with an IC50 of more than 46 µM.
The result for `C[C@@H]1CN(c2c(F)c(F)c3c(=O)c(C(=O)O)cn(C4CC4)c3c2F)C[C@H](C)N1` reads more than 46 µM.
Regarding `CCC(C(=O)OCCN(CC)CC)c1ccccc1` (stereo not given), the IC50 is more than 46 µM.
Turning to `O=[N+]([O-])C(Br)(CO)CO`, the concentration for half-maximal inhibition (IC50) is more than 46 µM.
In turn, `CCC(N)Cc1c[nH]c2ccccc12` (stereo not given) had an IC50 of more than 46 µM.
With `COc1ccc2c(c1OC)CN1CCc3cc4c(cc3C1C2)OCO4` (stereo not given), the IC50 is more than 46 µM.
As to `CC(C)(C)NCC(O)c1cc(Cl)c(N)c(C(F)(F)F)c1.Cl` (stereo not given), the IC50 is more than 46 µM.
`CCN(CC)CCOc1ccccc1OC` had a concentration for half-maximal inhibition (IC50) of more than 46 µM.
Next, `O=S(=O)(O)O.[2H]C([2H])([2H])[C@H](N)Cc1ccccc1.[2H]C([2H])([2H])[C@H](N)Cc1ccccc1`: more than 46 µM; `Cc1ccc2c(c1)C1CN(C)CCC1N2` (stereo not given): more than 46 µM; `CO[C@H]1/C=C/O[C@@]2(C)Oc3c(C)c(O)c4c(O)c(c5c(nc6cc(C)ccn65)c4c3C2=O)NC(=O)/C(C)=C\C=C\[C@H](C)[C@H](O)[C@@H](C)[C@@H](O)[C@@H](C)[C@H](OC(C)=O)[C@@H]1C`: more than 46 µM.
The result for `COc1nc(C)nc(Cl)c1NC1=NCCN1` reads more than 46 µM.
Consider `COc1ccc2nc(NC(=O)Nc3ccccc3)sc2c1`, for which the IC50 was more than 46 µM.
Next, `CC(=O)[C@@]3(O)CC[C@H]4[C@@H]5/C=C(/Cl)\C2=C\C(=O)[C@@H]1C[C@@H]1[C@]2(C)[C@H]5CC[C@]34C`: more than 46 µM; `O=C1NCCN1c1ncc([N+](=O)[O-])s1`: more than 46 µM; `CC(C)(C)NCC(O)CSc1nc(-c2ccc(C(N)=O)s2)cs1.Cl` (stereo not given): more than 46 µM.
The compound `CC(C)c1ncc([N+](=O)[O-])n1C` came in with an IC50 of more than 46 µM.
Consider `CCOC(C)OCC`, for which the concentration for half-maximal inhibition (IC50) is more than 46 µM.
With `O=C(C)N(CC4)CCN4C(C=C5)=CC=C5OC[C@]2([H])O[C@@](OC2)(CN3C=NC=C3)[C@@]1=CC=C(Cl)C=C1Cl`, the IC50 is more than 46 µM.
Take `C[NH+](C)CCC(c1ccccc1)c1cccc[nH+]1.O=C([O-])/C=C\C(=O)[O-]` (stereo not given): the IC50 was more than 46 µM.
Consider `C=C[C@H]1CN2CC[C@H]1C[C@H]2[C@H](O)c1ccnc2ccc(OC)cc12`, for which the half-inhibitory concentration (IC50) is more than 46 µM.
The compound `CCN(CC)CCOC(=O)c1cccnc1.O=C(O)CC(O)(CC(=O)O)C(=O)O` yielded a concentration for half-maximal inhibition (IC50) of more than 46 µM.
With `C=CCn1c(=O)n([C@@H]2O[C@H](CO)[C@@H](O)[C@H]2O)c2nc(N)[nH]c(=O)c21`, the IC50 is more than 46 µM.
Turning to `C=CC[N@@H+]1/C(=C/CO)[C@@H]2C[C@H]3[C@H]1CC[C@]31c3ccccc3N3C=C4[C@@H]5N(C=C2[C@H]31)c1ccccc1[C@@]51CC[C@H]2[C@H]1C[C@@H]4/C(=C\CO)[N@@H+]2CC=C.[Cl-].[Cl-]`, the IC50 is more than 46 µM.
In turn, `CN1C(C(=O)Nc2ccccn2)=C(O)c2ccccc2S1(=O)=O` came in with a 50% inhibitory concentration (IC50) of more than 46 µM.
`CN1CCC[C@@H]1CCO[C@](C)(c1ccccc1)c1ccc(Cl)cc1.O=C(O)/C=C/C(=O)O` yielded a half-inhibitory concentration (IC50) of more than 46 µM.
Consider `O=[C@](N[C@H]2C[C@@H]2[C@]3=CC=CC=C3)[C@H]1NC(CC1)=O`, for which the IC50 is more than 46 µM.
The compound `CCN(CC)CCOC(=O)C(c1ccccc1)C1CCCCC1.Cl` (stereo not given) returned a 50% inhibitory concentration (IC50) of more than 46 µM.
The compound `O=C1Cc2cc(CCN3CCN(c4nsc5ccccc45)CC3)c(Cl)cc2N1` gave an IC50 of more than 46 µM.
Next, `NS(=O)(=O)c1cc2c(cc1Cl)NCNS2(=O)=O`: more than 46 µM; `O=C2N1[C@]([C@@]([H])2NC(C3=C(C)ON=C3C(C(Cl)=CC=C4)=C4F)=O)([H])SC(C)(C)[C@@H]1[C@@]([O-])=O.O.[Na+]`: more than 46 µM.
The compound `CS(=O)(=O)O.N[C@@H]1[C@H]2CN(c3nc4c(cc3F)c(=O)c(C(=O)O)cn4-c3ccc(F)cc3F)C[C@@H]12` came in with an IC50 of more than 46 µM.
Next, `NC(Cc1ccccc1)C(=O)O` (stereo not given): more than 46 µM.
